Experimental data published in patent US10053468B2, “Heterocyclic compound” (TAKEDA PHARMACEUTICAL COMPANY LIMITED, priority 2013, dated 2018).
Read-outs that look alike come from different tables or passages of the source.

What was measured:
RORγt [1] = molecular target: T1, RORγt (Homo sapiens, UniProt P51449); assay: RORγt binding test using fluorescent-labeled cholesterol (TR-FRET); details: read-out: Binding inhibitory rate of fluorescent-labeled cholesterol to RORγt at test compound 1 μM (%)
T1 sequence (P51449 1-497 isoform P51449-2): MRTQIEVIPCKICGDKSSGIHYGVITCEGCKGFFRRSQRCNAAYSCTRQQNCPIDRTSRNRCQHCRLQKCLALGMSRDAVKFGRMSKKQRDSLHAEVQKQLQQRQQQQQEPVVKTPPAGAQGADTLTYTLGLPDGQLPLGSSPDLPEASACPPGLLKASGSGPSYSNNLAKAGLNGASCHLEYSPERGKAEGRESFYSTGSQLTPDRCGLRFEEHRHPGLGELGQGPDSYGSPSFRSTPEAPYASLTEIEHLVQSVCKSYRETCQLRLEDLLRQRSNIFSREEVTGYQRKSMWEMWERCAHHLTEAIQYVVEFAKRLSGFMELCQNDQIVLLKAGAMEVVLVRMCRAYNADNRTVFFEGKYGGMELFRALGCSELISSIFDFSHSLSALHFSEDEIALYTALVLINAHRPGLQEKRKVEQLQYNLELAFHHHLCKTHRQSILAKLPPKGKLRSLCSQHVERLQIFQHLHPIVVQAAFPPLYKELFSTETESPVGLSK
How it was run: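 TR-FRET displacement with His-tagged RORγt, BODIPY-cholesterol and Tb-anti-His antibody in Tris-HCl pH 7.5, 100 mM NaCl, 1 mM DTT, 0.1% BSA. Compound, RORγt and labelled cholesterol were incubated 20 min at RT, then antibody was added for another 20 min.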

RORγt [2] = molecular target: T1, RORγt; assay: RORγt binding test using fluorescent-labeled synthetic ligand (TR-FRET); details: read-out: Binding inhibitory rate of fluorescent-labeled synthetic ligand to RORγt at test compound 1 μM (%)
How it was run: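 His-tagged RORγt (diluted to 240 nM) with compound, then fluorescent synthetic ligand (diluted to 12 μM), 20 min at room temperature, followed by Tb anti-His antibody (diluted to 8 nM), 20 min.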

RORγt [3] = molecular target: T1, RORγt; assay: Cofactor recruitment test (Alpha Screen, biotinylated SRC-1 peptide); format: biochemical; details: read-out: Signal value inhibitory rate at test compound 1 μM (%)
Method: Cofactor Recruitment Test
Cofactor recruitment test was performed by Alpha Screen (Histidine Detection Kit, PerkinElmer) method. First, a test compound was diluted with an assay buffer (50 mM Tris-HCl (pH 7.5), 50 mM KCl, 1 mM DTT, 0.1% BSA) and added to a 384 well plate by 5 μL. […] The mixture was stood in a dark place for 1 hr, and the signal value was measured by Envision (PerkinElmer).

RORγt [4] = molecular target: T1, RORγt; assay: Jurkat reporter test (human IL-17 ROR response element luciferase, RORγt vector); format: cell-based; details: read-out: Luminescence level inhibitory rate at test compound 3 μM (%)
How it was run: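 Jurkat cells were electroporated (1350 V, 10 ms, 3 pulses) with reporter constructs, then cultured overnight with compound in RPMI containing 10% lipid-reduced FCS, 10 mM HEPES pH 7.5 and 5 μM lovastatin. Luciferase was quantified by Bright-Glo luminescence after 10 min at room temperature.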

IL-17A gene expression = assay: Effect on IL-23-induced cytokine expression in mice; format: in vivo, Balb/c mice; details: Mus musculus, 30 min before and 8 hr after IL-23, versus the negative control group, read-out: Percent inhibition of IL-17A gene expression; for inhibition in vivo at 10 mg/kg: dose 10 mg/kg oral; for inhibition in vivo at 30 mg/kg: dose 30 mg/kg oral
Method: Effect on IL-23-induced Cytokine Expression in Mice
A mouse IL-23 solution (500 ng/10 μL, prepared by Takeda Pharmaceutical Company Limited) or PBS (10 μL, negative control group) was administered intradermally in the ear of Balb/c mice (Charles River Japan, male, 7 weeks old). Twenty-four hr after administration, the ear was resected under isoflurane anesthesia. The test compound was suspended in 0.5% methylcellulose and administered orally 30 min before and 8 hr after IL-23 administration.
RNA extraction from the ear tissue and quantitative PCR were performed as follows. Specifically, ear tissue 5 mm in diameter was punched from an area of the resected ear centering on the IL-23 injection site, and the tissue was immersed in RNAlater (QIAGEN) for at least 18 hr. The RNAlater-treated ear tissue was homogenized in 350 μL of RLT buffer (RNeasy mini kit, QIAGEN) and treated (55° C., 10 min) with Proteinase K (QIAGEN). Total RNA was then extracted according to the RNeasy mini kit protocol. The RNA thus obtained was then reverse transcribed into cDNA using the High-Capacity RNA-to-cDNA kit (Applied Biosystems), and the amount of each cytokine expressions was measured by real-time PCR (Viia7™, Applied Biosystems). The PCR buffer used was TaqMan Fast Advanced Master Mix (Applied Biosystems), and TaqMan Gene Expression Assays (Applied Biosystems) Mm00439618 ml (IL-17A) and 4352341E (β-actin) were used for cytokine gene detection. The IL-17A gene expression level was normalized to the R-actin gene expression level, and the percent inhibition of IL-17A gene expression with the test compound was then calculated.
The results obtained with the above-described method (percent inhibition of IL-17A gene expression with oral administration of the test compound) are shown in Table 5.

[5] = test system: IL-17 production in human blood; assay: Effect on IL-17 production in human blood; format: cell-based; details: 72 h, 10 μM test compound, IL-23 and Dynabeads stimulation, 3 days, read-out: Percent Inhibition at 10 μM (IL-17 production)
Method: Effect on IL-17 Production in Human Blood
The inhibitory effect of the test compound on IL-17 production in human blood was evaluated as follows. First, 150 μL of peripheral blood collected from healthy individuals using heparinized vacuum blood collection tubes was dispensed into each well of a 96-well plate (Corning), and 45 μL of RPMI 1640 medium (Gibco) containing 10% fetal bovine serum (FBS, Hyclone) and 30 μL of the test compound diluted with the medium was added to each well. The plate was then cultured for 30 min at 37° C. Cells were subsequently stimulated by adding 30 μL of 100 ng/mL human IL-23 (R&D) and 45 μL of Dynabeads Human (Invitrogen) to each well and culturing the plate for 3 days at 37° C. In wells without stimulation, 75 μL of RPMI 1640 medium containing 10% FBS was added instead of the IL-23 and Dynabeads solution. After culturing for 3 days, the culture supernatant was collected, and the amount of IL-17 in the supernatant was measured using an IL-17 ELISA kit (R&D).
The results of the above-described measurements (percent inhibition of IL-17 production with 10 μM of the test compound) are shown in Table 4.

[6] = test compound 3 μM, Jurkat cells

Row | SMILES | inhibition at 1 µM (RORγt [1]) [%] | inhibition at 1 µM (RORγt [2]) [%] | inhibition at 1 µM (RORγt [3]) [%] | inhibition at 10 µM [5] [%] | inhibition in vivo at 10 mg/kg (IL-17A gene expression) [%] | inhibition in vivo at 30 mg/kg (IL-17A gene expression) [%] | inhibition at 3 µM (RORγt [4]; Jurkat) [%] | further results
1 | COc1ccc2c(c1)CCN(C(=O)c1cc(O)no1)[C@H]2C(=O)Nc1cc(F)c2c(c1)CCC2(C)C [Example 68, (1R)-N-(7-fluoro-1,1-dimethyl-2,3-dihydro-1H-inden-5-yl)-2-((3-hydroxy-1,2-oxazol-5-yl)carbonyl)-6-methoxy-1,2,3,4-tetrahydroisoquinoline-1-carboxamide] | 103 | 101 | 73 | – | – | – | – | inhibition at 3 µM (RORγt [4]; [6]): 99%; inhibition in vivo at 100 mg/kg (IL-17A gene expression; dose 100 mg/kg oral): 90%
2 | COc1ccc2c(c1)CCN(C(=O)CCCC(=O)O)[C@H]2C(=O)Nc1cc(F)c([Si](C)(C)C)c(F)c1 [Example 82, 5-((1R)-1-((3,5-difluoro-4-(trimethylsilyl)phenyl)carbamoyl)-6-methoxy-3,4-dihydroisoquinolin-2(1H)-yl)-5-oxopentanoic acid] | – | – | – | 75 | 85 | – | – | –
3 | COc1ccc2c(c1)CCN(C(=O)CCCC(=O)O)[C@H]2C(=O)Nc1cc(F)c(C(C)(C)C)c(F)c1 [Example 109, 5-((1R)-1-((4-tert-butyl-3,5-difluorophenyl)carbamoyl)-6-methoxy-3,4-dihydroisoquinolin-2(1H)-yl)-5-oxopentanoic acid] | – | – | – | – | – | 96 | – | –
4 | COc1ccc2c(n1)CCN(C(=O)CCCC(=O)O)[C@H]2C(=O)Nc1cc(F)c([Si](C)(C)C)c(F)c1 [Example 125, 5-((5R)-5-((3,5-difluoro-4-(trimethylsilyl)phenyl)carbamoyl)-2-methoxy-7,8-dihydro-1,6-naphthyridin-6(5H)-yl)-5-oxopentanoic acid] | – | – | – | – | – | 89 | – | –
5 | COc1ccc2c(c1)CCN(C(=O)CCCC(=O)O)[C@H]2C(=O)Nc1ccc([Si](C)(C)C)c(F)c1 [Example 135, 5-((1R)-1-((3-fluoro-4-(trimethylsilyl)phenyl)carbamoyl)-6-methoxy-3,4-dihydroisoquinolin-2(1H)-yl)-5-oxopentanoic acid] | 102 | 101 | 97 | – | – | 68 | 104 | –
6 | COCc1ccc2c(c1)CCN(C(=O)CCCC(=O)O)[C@H]2C(=O)Nc1cc(F)c(C(C)(C)C)c(F)c1 [Example 144, 5-((1R)-1-((4-tert-butyl-3,5-difluorophenyl)carbamoyl)-6-(methoxymethyl)-3,4-dihydroisoquinolin-2 (1H)-yl)-5-oxopentanoic acid] | 101 | 101 | 97 | 86 | – | – | – | inhibition at 3 µM (RORγt [4]; [6]): 101%
7 | CCOCC(C)(C)c1c(F)cc(NC(=O)[C@H]2c3ccc(OC)cc3CCN2C(=O)CCCC(=O)O)cc1F [Example 172, 5-((1R)-1-((4-(1-ethoxy-2-methylpropan-2-yl)-3,5-difluorophenyl)carbamoyl)-6-methoxy-3,4-dihydroisoquinolin-2(1H)-yl)-5-oxopentanoic acid] | 101 | 101 | 82 | – | – | – | – | inhibition at 3 µM (RORγt [4]; [6]): 97%
8 | COc1ccc2c(c1)CCN(C(=O)CCCC(=O)O)[C@H]2C(=O)Nc1cc(F)c2c(c1)CCC2(C)C [Example 176, 5-((1R)-1-((7-fluoro-1,1-dimethyl-2,3-dihydro-1H-inden-5-yl)carbamoyl)-6-methoxy-3,4-dihydroisoquinolin-2 (1H)-yl)-5-oxopentanoic acid] | – | – | – | – | – | 91 | – | –
9 | CCOc1ccc2c(c1)CCN(C(=O)CCCC(=O)O)[C@H]2C(=O)Nc1cc(F)c([Si](C)(C)C)c(F)c1 [Example 179, 5-((1R)-1-((3,5-difluoro-4-(trimethylsilyl)phenyl)carbamoyl)-6-ethoxy-3,4-dihydroisoquinolin-2(1H)-yl)-5-oxopentanoic acid] | – | 101 | 94 | 82 | – | 95 | 102 | –
10 | CCOc1ccc2c(c1)CCN(C(=O)CC[C@H](C)C(=O)O)[C@H]2C(=O)Nc1cc(F)c2c(c1)CCC2(C)C [Example 266, (2S)-5-((1R)-6-ethoxy-1-((7-fluoro-1,1-dimethyl-2,3-dihydro-1H-inden-5-yl)carbamoyl)-3,4-dihydroisoquinolin-2(1H)-yl)-2-methyl-5-oxopentanoic acid] | – | – | – | 88 | – | – | – | –
11 | COc1ccc2c(n1)CCN(C(=O)N1CC(CC(=O)O)C1)[C@H]2C(=O)Nc1cc(F)c2c(c1)CCC2(C)C [Example 273, (1-(((5R)-5-((7-fluoro-1,1-dimethyl-2,3-dihydro-1H-inden-5-yl)carbamoyl)-2-methoxy-7,8-dihydro-1,6-naphthyridin-6(5H)-yl)carbonyl)azetidin-3-yl)acetic acid] | – | – | – | 89 | 77 | – | – | –
12 | COc1ccc2c(c1)CCN(C(=O)N1CC(CC(=O)O)C1)[C@H]2C(=O)Nc1ccc([Si](C)(C)C)c(F)c1 [Example 279, (1-(((1R)-1-((3-fluoro-4-(trimethylsilyl)phenyl)carbamoyl)-6-methoxy-3,4-dihydroisoquinolin-2(1H)-yl)carbonyl)azetidin-3-yl)acetic acid] | – | 102 | 89 | – | 71 | – | 100 | –
13 | COc1ccc2c(n1)CCN(C(=O)N1CC(CC(=O)O)C1)[C@H]2C(=O)Nc1cc(F)c([Si](C)(C)C)c(F)c1 [Example 281, (1-(((5R)-5-((3,5-difluoro-4-(trimethylsilyl)phenyl)carbamoyl)-2-methoxy-7,8-dihydro-1,6-naphthyridin-6(5H)-yl)carbonyl)azetidin-3-yl)acetic acid] | – | 102 | 89 | – | 93 | – | 102 | –
